Key:
eIF2B(αβγδε)2 decamer [1] = target: T1, eIF2B(αβγδε)2 decamer (Homo sapiens, UniProt P49770+Q9UI10); experiment: hydrogen-deuterium exchange mass spectrometry; assay type: binding; details: 20 mM HEPES, 200 mM KCl, 5 mM MgCl2, 1 mM TCEP, pH 7.9; ISRIB pocket, groove between eIF2Bβ and eIF2Bδ'; allosteric
T1 construct: gene EIF2B2; recombinant human eIF2Bα2 (pJT075) mixed with eIF2Bβγδε (pJT073 + pJT074 coexpression); heterodecamer; 2,369 unique amino acids; with Translation initiation factor eIF2B subunit alpha; Translation initiation factor eIF2B subunit gamma; Translation initiation factor eIF2B subunit epsilon

eIF2B(αβγδε)2 decamer [2] = target: T1, eIF2B(αβγδε)2 decamer; experiment: fluorescence polarization, eIF2B titration; assay type: binding; details: labelled compound; 2.5 nM FAM-ISRIB; 20 mM HEPES-KOH pH 7.5, 100 mM KCl, 5 mM MgCl2, 1 mM TCEP; 25 °C; ISRIB pocket; read-out: half-maximal effective concentration
eIF2B(αβγδε)2 decamer [3] = target: T2, eIF2B(αβγδε)2 decamer (Homo sapiens, UniProt P49770+Q9UI10, Q9UI10:E445A); experiment: fluorescence polarization, eIF2B titration; assay type: binding; details: labelled compound; 2.5 nM FAM-ISRIB; 20 mM HEPES-KOH pH 7.5, 100 mM KCl, 5 mM MgCl2, 1 mM TCEP; 25 °C; ISRIB pocket; read-out: half-maximal effective concentration
T2 construct: gene EIF2B2; recombinant human eIF2Bα2 (pJT075) mixed with eIF2Bβγδε (pJT073 + pJT074 coexpression); heterodecamer; 2,369 unique amino acids; with Translation initiation factor eIF2B subunit alpha; Translation initiation factor eIF2B subunit gamma; Translation initiation factor eIF2B subunit epsilon

eIF2B(αβγδε)2 decamer [4] = target: T3, eIF2B(αβγδε)2 decamer (Homo sapiens, UniProt P49770+Q9UI10, Q9UI10:F443A); experiment: fluorescence polarization, eIF2B titration; assay type: binding; details: labelled compound; 2.5 nM FAM-ISRIB; 20 mM HEPES-KOH pH 7.5, 100 mM KCl, 5 mM MgCl2, 1 mM TCEP; 25 °C; ISRIB pocket; read-out: half-maximal effective concentration
T3 construct: gene EIF2B2; recombinant human eIF2Bα2 (pJT075) mixed with eIF2Bβγδε (pJT073 + pJT074 coexpression); heterodecamer; 2,369 unique amino acids; with Translation initiation factor eIF2B subunit alpha; Translation initiation factor eIF2B subunit gamma; Translation initiation factor eIF2B subunit epsilon

eIF2B(αβγδε)2 decamer [5] = target: T4, eIF2B(αβγδε)2 decamer (Homo sapiens, UniProt P49770+Q9UI10, Q9UI10:L516A); experiment: fluorescence polarization, eIF2B titration; assay type: binding; details: labelled compound; 2.5 nM FAM-ISRIB; 20 mM HEPES-KOH pH 7.5, 100 mM KCl, 5 mM MgCl2, 1 mM TCEP; 25 °C; ISRIB pocket; read-out: half-maximal effective concentration
T4 construct: gene EIF2B2; recombinant human eIF2Bα2 (pJT075) mixed with eIF2Bβγδε (pJT073 + pJT074 coexpression); heterodecamer; 2,369 unique amino acids; with Translation initiation factor eIF2B subunit alpha; Translation initiation factor eIF2B subunit gamma; Translation initiation factor eIF2B subunit epsilon

eIF2Bβγδ^E445Aε tetramer = eIF2Bβγδ^E445Aε tetramer (human, UniProt P49770 2-351; Q9NR50 1-452; Q9UI10 1-523; Q13144 1-721, δE445A); experiment: AUC; sedimentation velocity, 40,000 r.p.m., 20 °C, 20 mM HEPES-KOH pH 7.5, 150 mM KCl, 1 mM TCEP, 5 mM MgCl2; tetramer mixed with eIF2Bα2 (2:1 or 1:1 tetramer:dimer); continuous c(S) distribution; details: both partners purified
eIF2Bβγδ^F443Aε tetramer = eIF2Bβγδ^F443Aε tetramer (human, UniProt P49770 2-351; Q9NR50 1-452; Q9UI10 1-523; Q13144 1-721, δF443A); experiment: as above; details: both partners purified
[6] = target: the molecule itself; experiment: cryo-EM structure; 20 µM eIF2Bδ^L516A βγδε incubated with 11 µM eIF2Bα2 in 20 mM HEPES-KOH, 200 mM KCl, 5 mM MgCl2, 1 mM TCEP; diluted to 750 nM for grids

## O=C(COc1ccc(Cl)c(F)c1)NC12CC(NC(=O)c3cnc(C(F)F)cn3)(C1)C2 [2BAct]
eIF2B(αβγδε)2 decamer [1]
  hydrogen-deuterium exchange mass spectrometry: We also observed protection in peptides at the 2BAct binding site

## FAM-ISRIB
eIF2B(αβγδε)2 decamer [2]
  EC50: 38 ± 2 nM
eIF2B(αβγδε)2 decamer [3]
  EC50: 30 ± 2 nM
eIF2B(αβγδε)2 decamer [4]
  EC50: 50 ± 8 nM
eIF2B(αβγδε)2 decamer [5]
  EC50: 169 ± 34 nM

B1: eIF2Bα2 dimer, wild type (complex, human)
chain: DDKELIEYFKSQMKEDPDMASAVAAIRTLLEFLKRDKGETIQGLRANLTSAIETLCGVDSSVAVSSGGELFLRFISLASLEYSDYSKCKKIMIERGELFLRRISLSRNKIADLCHTFIKDGATILTHAYSRVVLRVLEAAVAAKKRFSVYVTESQPDLSGKKMAKALCHLNVPVTVVLDAAVGYIMEKADLVIVGAEGVVENGGIINKIGTNQMAVCAKAQNKPFYVVAESFKFVRLFPLNQQDVPDKFKYKADTLKVAQTGQDLKEEHPWVDYTAPSLITLLFTDLGVLTPSAVSDELIKLYL
notes: also called eIFBα2
eIF2Bβγδ^E445Aε tetramer
  binding result: binds
eIF2Bβγδ^F443Aε tetramer
  binding result: binds
[6]
  binding result: binds

From PMC10972756, “A helical fulcrum in eIF2B coordinates allosteric regulation of stress signaling” (Nature Chemical Biology, 2023)
